Measured values as given in PubChem BioAssay AID2060616 (Molecular Pharmacology Branch, DTP, NCI, 2025).

Tested on: 377384-186-R-J1-PDC complex spheroid viability
Assay: Anticancer human tumor 377384-186-R-J1-PDC patient-derived pancreatic carcinoma cell line growth inhibition [CLK]
Details: for IC50: curve of first compound; for viability, T/C: stronger effect = lower value
Source text: A high-throughput screen of multi-cell type tumor spheroids was designed to identify active combinations of […] and targeted small molecules. Complex spheroids include a stromal component modeled by human endothelial cells (HUVEC) and fibroblasts modeled by human mesenchymal stem cells (MSCs). The concentration ranges selected for each drug and investigational agent were based upon clinically achievable concentrations if the clinical Cmax of the agent was known.
Compounds. The drugs and investigational agents: cirtuvivint (SM08502; NSC835563), CC-671 (NSC850746), vemurafenib (NSC761431), tapotoclax (NSC804041), sotorasib (NSC818433), adagrasib (NSC831453), MRTX-1133 (NSC836407), BAY2416964 (NSC825713), copanlisib (NSC816437), inavolisib (NSC800729), abemaciclib (NSC768073), osimertinib (NSC779217), entinostat (NSC756642), eltanexor (KPT-8602, NSC794443), venetoclax (NSC766270), ceralasertib (NSC777638), bortezomib (NSC756655), olaparib (NSC753686), talazoparib (NSC767125), alisertib (NSC759677), peposertib (NSC802822), gemcitabine (NSC613327), 5-fluorouracil (NSC19893), SN-38 (NSC673596), oxaliplatin (NSC266046), paclitaxel (NSC125973), and doxorubicin (NSC123127), were obtained from the National Cancer Institute (NCI) Developmental Therapeutics Program Chemical Repository. The FDA-approved anticancer drug set is available from the Developmental Therapeutics Program at https://dtp.cancer.gov/organization/dscb/obtaining/available plates.htm. […] The stock solutions were prepared in dimethyl sulfoxide (DMSO, Sigma-Aldrich, St. Louis, MO, cat. D2650), except for the platinum complexes which were prepared in saline (Quality Biological, Gaithersburg, MD, cat. 114-055-101), at 800-fold the tested concentration and stored at -70 degrees C prior to their use. All drugs and investigational agents were tested over a range starting from a high concentration at or near the clinical Cmax and decreasing in half-log increments. If the clinical Cmax for an agent had not been determined, the highest concentration tested was 10 microM.
Cell Culture. All cells were maintained in an incubator at 37 degrees C and 5% CO2 with 95% humidity. The PDC lines were cultured according to standard operating procedures established by the NCI PDMR. Briefly, all PDCs were thawed and cultured in Matrigel-coated flasks prepared with a working solution of 1X Ham's F-12 nutrient mix, without supplementation (Invitrogen, Waltham, MA, cat. 11765054), 100 U/mL penicillin-streptomycin (Invitrogen, cat. 15140122), and 2.5% Matrigel (Corning Inc., Corning, NY, cat. 354248) for the first three passages. The 947758-054-R-J2-PDC line was cultured in 6B/Colon 1A media, which includes advanced DMEM/F-12 (Thermo Fisher Scientific, cat. 12634028), 10 mM HEPES (Thermo Fisher Scientific, cat. 15630080), 1X GlutaMAX supplement (Thermo Fisher Scientific, cat. 35050061), 0.1 mg/mL primocin (InvivoGen, cat. ant-pm-2), 10% defined fetal bovine serum, heat inactivated (HyClone Laboratories Inc., cat. SH30070.03HI), 1.25 mM N-Acetyl-L-cysteine (Sigma-Aldrich, cat. A9165), 10 mM nicotinamide (Sigma-Aldrich, cat. N0636), 1X B-27 supplement (Thermo Fisher Scientific, cat. 17504044), 1X N-2 supplement (Thermo Fisher Scientific, cat. 17502048), and 10 microM Y-27632 dihydrochloride (Tocris Bioscience, cat. 1254). The 876862-298-R-J1-PDC was cultured in 6E media, which includes all 6B/Colon 1A media components plus 50% L-WRN conditioned media (ATCC, cat. CRL-3276), 50 ng/mL recombinant human EGF recombinant protein (hEGF; Thermo Fisher Scientific, cat. PHG0311), 10 ng/mL recombinant human fibroblast growth factor 10 (hGFG-10; PeproTech, cat. 100-26), 1 ng/mL recombinant human fibroblast growth factor 2 (hFGF-2; PeproTech, cat. 100-18B), and 1 µM prostaglandin E2 (PGE2; Tocris, cat. 2296). The 227483-062-R1-J1-PDC line was cultured in Panc media, containing all 6E components except hFGF-2, with the addition of 500 nM SB-431542 (Selleckchem, cat. S1067) and 10 nM gastrin (Tocris, cat. 3006). […]

[1] = second compound 0.0316 µM, first compound 0.0316 µM
[2] = second compound 0.0316 µM, first compound 0.1 µM
[3] = second compound 0.0316 µM, first compound 0.316 µM
[4] = second compound 0.0316 µM, first compound 1 µM
[5] = second compound 0.1 µM, first compound 0.0316 µM
[6] = second compound 0.1 µM, first compound 0.1 µM
[7] = second compound 0.1 µM, first compound 0.316 µM
[8] = second compound 0.1 µM, first compound 1 µM
[9] = second compound 0.316 µM, first compound 0.0316 µM
[10] = second compound 0.316 µM, first compound 0.1 µM
[11] = second compound 0.316 µM, first compound 0.316 µM
[12] = second compound 0.316 µM, first compound 1 µM
[13] = second compound 1 µM, first compound 0.0316 µM
[14] = second compound 1 µM, first compound 0.1 µM
[15] = second compound 1 µM, first compound 0.316 µM
[16] = second compound 1 µM, first compound 1 µM
[17] = second compound 3.16 µM, first compound 0.0316 µM
[18] = second compound 3.16 µM, first compound 0.1 µM
[19] = second compound 3.16 µM, first compound 0.316 µM
[20] = second compound 3.16 µM, first compound 1 µM
[21] = second compound 10 µM, first compound 0.0316 µM
[22] = second compound 10 µM, first compound 0.1 µM
[23] = second compound 10 µM, first compound 0.316 µM
[24] = second compound 10 µM, first compound 1 µM
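Also: spheroids exposed to agents for 7 days before reading.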
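For viability, T/C in this document: luminescence signal used as a stand-in for viable cells.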

For `COC1C=CCC(C)C(C)S(=O)(=O)NC(=O)c2ccc3c(c2)N(CC2CCC21)CC1(CCCc2cc(Cl)ccc21)CO3` (centres undefined) + CNC(=O)c1ccc(Nc2nc(OC3CCCC3)c3c(-c4ccc5nc(C)oc5c4)c[nH]c3n2)c(OC)c1, the IC50 (second compound 0.0316 µM) was 5940 nM, the IC50 (second compound 0.1 µM) was 4470 nM and the IC50 (second compound 0.316 µM) was less than 31.6 nM. It also gave an IC50 (second compound 1 µM) of less than 31.6 nM, an IC50 (second compound 3.16 µM) of less than 31.6 nM and an IC50 (second compound 10 µM) of less than 31.6 nM. For the same compound, the viability, T/C [1] was 100%, the viability, T/C [2] was 99.6% and the viability, T/C [3] was 97.8%. For the same compound, the viability, T/C [4] was 92.9%, the viability, T/C (second compound 0.0316 µM, first compound 3.16 µM) was 84.2% and the viability, T/C (second compound 0.0316 µM, first compound 10 µM) was 22.4%. For the same compound, the viability, T/C [5] was 57.9%, the viability, T/C [6] was 61.9% and the viability, T/C [7] was 56%. For the same compound, the viability, T/C [8] was 68.4%, the viability, T/C (second compound 0.1 µM, first compound 3.16 µM) was 60% and the viability, T/C (second compound 0.1 µM, first compound 10 µM) was 26.2%. It also gave a viability, T/C [9] of 19.9%, a viability, T/C [10] of 17.2% and a viability, T/C [11] of 18.3%. The viability, T/C [12] was 16.8%, the viability, T/C (second compound 0.316 µM, first compound 3.16 µM) was 23% and the viability, T/C (second compound 0.316 µM, first compound 10 µM) was 19.2%. For the same compound, the viability, T/C [13] was 19%, the viability, T/C [14] was 17.6% and the viability, T/C [15] was 14.9%. The viability, T/C [16] was 12.4%, the viability, T/C (second compound 1 µM, first compound 3.16 µM) was 17.8% and the viability, T/C (second compound 1 µM, first compound 10 µM) was 21.9%. For the same compound, the viability, T/C [17] was 18.9%, the viability, T/C [18] was 18.9% and the viability, T/C [19] was 13.4%. For the same compound, the viability, T/C [20] was 13.9%, the viability, T/C (second compound 3.16 µM, first compound 3.16 µM) was 14.6% and the viability, T/C (second compound 3.16 µM, first compound 10 µM) was 20.8%. It also gave a viability, T/C [21] of 18.5%, a viability, T/C [22] of 16.6% and a viability, T/C [23] of 15.1%. The viability, T/C [24] was 12.4%, the viability, T/C (second compound 10 µM, first compound 3.16 µM) was 12.3% and the viability, T/C (second compound 10 µM, first compound 10 µM) was 18%.

`CCc1c2c(nc3ccc(O)cc13)-c1cc3c(c(=O)n1C2)COC(=O)[C@]3(O)CC` + CNC(=O)c1ccc(Nc2nc(OC3CCCC3)c3c(-c4ccc5nc(C)oc5c4)c[nH]c3n2)c(OC)c1 showed an IC50 (second compound 0.0316 µM) of less than 3.16 nM, an IC50 (second compound 0.1 µM) of less than 3.16 nM and an IC50 (second compound 0.316 µM) of less than 3.16 nM. For the same compound, the IC50 (second compound 1 µM) was less than 3.16 nM, the IC50 (second compound 3.16 µM) was less than 3.16 nM and the IC50 (second compound 10 µM) was less than 3.16 nM. The viability, T/C (second compound 0.0316 µM, first compound 0.00316 µM) was 25.8%, the viability, T/C (second compound 0.0316 µM, first compound 0.01 µM) was 11.6% and the viability, T/C [1] was 4.72%. The viability, T/C [2] was 2.28%, the viability, T/C [3] was 1.46% and the viability, T/C [4] was 0.55%. The viability, T/C (second compound 0.1 µM, first compound 0.00316 µM) was 17.5%, the viability, T/C (second compound 0.1 µM, first compound 0.01 µM) was 9.08% and the viability, T/C [5] was 4.28%. The viability, T/C [6] was 2.07%, the viability, T/C [7] was 1.21% and the viability, T/C [8] was 0.63%. For the same compound, the viability, T/C (second compound 0.316 µM, first compound 0.00316 µM) was 10.7%, the viability, T/C (second compound 0.316 µM, first compound 0.01 µM) was 7% and the viability, T/C [9] was 3.57%. The viability, T/C [10] was 2.54%, the viability, T/C [11] was 1.19% and the viability, T/C [12] was 0.53%. The viability, T/C (second compound 1 µM, first compound 0.00316 µM) was 12.9%, the viability, T/C (second compound 1 µM, first compound 0.01 µM) was 8.91% and the viability, T/C [13] was 3.7%. For the same compound, the viability, T/C [14] was 1.76%, the viability, T/C [15] was 1.06% and the viability, T/C [16] was 0.66%. The viability, T/C (second compound 3.16 µM, first compound 0.00316 µM) was 14.4%, the viability, T/C (second compound 3.16 µM, first compound 0.01 µM) was 8.07% and the viability, T/C [17] was 3.3%. For the same compound, the viability, T/C [18] was 1.8%, the viability, T/C [19] was 1.68% and the viability, T/C [20] was 0.58%. It also gave a viability, T/C (second compound 10 µM, first compound 0.00316 µM) of 13.4%, a viability, T/C (second compound 10 µM, first compound 0.01 µM) of 8.53% and a viability, T/C [21] of 3.76%. It also gave a viability, T/C [22] of 1.55%, a viability, T/C [23] of 0.98% and a viability, T/C [24] of 0.79%.
